Source: patent publication US10428017B2, “Modulators of the cystic fibrosis transmembrane conductance regulator protein and methods of use” (AbbVie S.à.r.l., priority 2017, dated 2019)
Like-named read-outs stand apart in the source and are kept apart here.

Molecular target: T1, F508delCFTR (Homo sapiens, UniProt P13569, DEL508-508)
T1 construct: expressed in transfected cells; host or cells: CFBE4lo-F508delCFTR-HRP cells (human lung derived epithelial cell line, doxycycline-inducible)
Assay: Cell Surface Expression-Horse Radish Peroxidase (CSE-HRP) Assay
Format: cell-based
Details: for EC50: CFBE4lo-F508delCFTR-HRP cells, 18-24 hours at 33° C.; for Emax / Maximum % activity (with co-corrector): maximum at any tested concentration (up to 20 μM), normalized to on-plate positive control (2 μM co-corrector); for Maximum % activity (with co-corrector): with co-corrector 2 μM
In short: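 Surface F508delCFTR measured via exofacial-loop HRP luminescence (luminol) in doxycycline-induced (0.5 μg/mL, 72 h) CFBE4lo− cells. Compounds, 20 μM top, 3-fold, 8 concentrations, ±2 μM co-corrector, incubated 18-24 h at 33° C; EC50 by variable-slope sigmoidal fit of % activity relative to positive control, three replicate plates.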

[1] = test compound without co-corrector, HRP luminescence readout, read-out: EC50 (without co-corrector)
[2] = test compound without co-corrector
[3] = with co-corrector 2 μM 3-[(2R,4R)-4-({[1-(2,2-difluoro-1,3-benzodioxol-5-yl)cyclopropyl]carbonyl}amino)-7-methoxy-3,4-dihydro-2H-chromen-2-yl]benzoic acid, read-out: EC50 (with co-corrector)

T1 sequence (P13569 with tags, fused parts or gaps DEL508-508): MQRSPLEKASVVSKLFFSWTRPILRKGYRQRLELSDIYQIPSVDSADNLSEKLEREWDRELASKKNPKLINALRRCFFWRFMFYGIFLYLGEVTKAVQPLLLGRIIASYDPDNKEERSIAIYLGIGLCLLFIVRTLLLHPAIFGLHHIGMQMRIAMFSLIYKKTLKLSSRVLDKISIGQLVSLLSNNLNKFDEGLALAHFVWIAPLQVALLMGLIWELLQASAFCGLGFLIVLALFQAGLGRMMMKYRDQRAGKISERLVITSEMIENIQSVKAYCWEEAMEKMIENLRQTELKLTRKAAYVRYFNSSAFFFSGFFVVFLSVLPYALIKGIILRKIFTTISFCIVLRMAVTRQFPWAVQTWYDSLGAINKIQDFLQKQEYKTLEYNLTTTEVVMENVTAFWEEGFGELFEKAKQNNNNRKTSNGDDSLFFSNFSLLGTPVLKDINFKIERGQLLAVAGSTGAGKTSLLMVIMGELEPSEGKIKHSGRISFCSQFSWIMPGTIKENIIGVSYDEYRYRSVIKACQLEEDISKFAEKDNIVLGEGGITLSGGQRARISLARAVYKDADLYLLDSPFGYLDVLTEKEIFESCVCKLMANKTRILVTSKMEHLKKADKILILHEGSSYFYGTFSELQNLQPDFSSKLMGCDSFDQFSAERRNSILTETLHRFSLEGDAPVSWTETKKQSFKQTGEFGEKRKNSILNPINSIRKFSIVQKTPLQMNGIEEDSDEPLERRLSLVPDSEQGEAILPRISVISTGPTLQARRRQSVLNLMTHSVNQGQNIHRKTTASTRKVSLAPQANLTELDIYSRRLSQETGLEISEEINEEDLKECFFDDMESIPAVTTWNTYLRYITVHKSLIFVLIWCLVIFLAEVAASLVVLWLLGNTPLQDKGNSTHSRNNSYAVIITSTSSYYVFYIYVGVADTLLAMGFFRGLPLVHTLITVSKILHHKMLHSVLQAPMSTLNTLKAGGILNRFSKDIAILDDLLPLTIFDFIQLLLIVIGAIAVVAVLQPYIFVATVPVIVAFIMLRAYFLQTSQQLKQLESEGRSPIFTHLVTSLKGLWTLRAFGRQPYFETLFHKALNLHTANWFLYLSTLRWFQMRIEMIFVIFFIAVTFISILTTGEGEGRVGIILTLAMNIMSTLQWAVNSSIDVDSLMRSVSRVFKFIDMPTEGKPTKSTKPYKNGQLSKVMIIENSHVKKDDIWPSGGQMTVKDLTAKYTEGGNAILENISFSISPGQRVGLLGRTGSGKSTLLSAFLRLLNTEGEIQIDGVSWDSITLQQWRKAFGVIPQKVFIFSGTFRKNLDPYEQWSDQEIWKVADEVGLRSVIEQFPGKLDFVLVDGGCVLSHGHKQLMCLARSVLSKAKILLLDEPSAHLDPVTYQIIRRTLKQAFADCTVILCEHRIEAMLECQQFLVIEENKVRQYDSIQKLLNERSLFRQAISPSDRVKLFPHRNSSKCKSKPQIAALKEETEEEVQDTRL

| EC50 [1] [µM] | Emax [2] [%] | EC50 [3] [µM] | Maximum % activity (with co-corrector) | SMILES |
| --- | --- | --- | --- | --- |
| 3 to 10 | 50 to 150 | < 3 | +++ (≥350) | COc1ccc(C#N)c2c1C(C(=O)NS(=O)(=O)c1cccc3ccccc13)CC(C)(C)O2 (stereo not shown) [Example 50, 8-cyano-5-methoxy-2,2-dimethyl-N-(naphthalene-1-sulfonyl)-3,4-dihydro-2H-1-benzopyran-4-carboxamide] |
| < 3 | ≥ 150 | < 3 | +++ (≥350) | COc1ccc(Cl)c2c1C(C(=O)NS(=O)(=O)c1cccc3ccccc13)CC(C)(C)O2 (stereo not shown) [Example 51, 8-chloro-5-methoxy-2,2-dimethyl-N-(naphthalene-1-sulfonyl)-3,4-dihydro-2H-1-benzopyran-4-carboxamide] |
| < 3 | ≥ 150 | < 3 | +++ (≥350) | COc1ccc(Br)c2c1C(C(=O)NS(=O)(=O)c1cccc3ccccc13)CC(C)(C)O2 (stereo not shown) [Example 52, 8-bromo-5-methoxy-2,2-dimethyl-N-(naphthalene-1-sulfonyl)-3,4-dihydro-2H-1-benzopyran-4-carboxamide] |
| < 3 | ≥ 150 | < 3 | +++ (≥350) | COc1ccc(C(F)(F)F)c2c1C(C(=O)NS(=O)(=O)c1cccc3ccccc13)CCO2 (stereo not shown) [Example 53, 5-methoxy-N-(naphthalene-1-sulfonyl)-8-(trifluoromethyl)-3,4-dihydro-2H-1-benzopyran-4-carboxamide] |
| 3 to 10 | ≥ 150 | < 3 | +++ (≥350) | COc1ccc(C2CCC2)c2c1C(C(=O)NS(=O)(=O)c1cccc3ncccc13)CCO2 (stereo not shown) [Example 54, 8-cyclobutyl-5-methoxy-N-(quinoline-5-sulfonyl)-3,4-dihydro-2H-1-benzopyran-4-carboxamide] |
| 3 to 10 | ≥ 150 | 3 to 10 | +++ (≥350) | COc1ccc(C2CCC2)c2c1[C@@H](C(=O)NS(=O)(=O)c1cccc3ccccc13)CCO2 [Example 55, (4S)-8-cyclobutyl-5-methoxy-N-(naphthalene-1-sulfonyl)-3,4-dihydro-2H-1-benzopyran-4-carboxamide] |
| < 3 | ≥ 150 | < 3 | +++ (≥350) | COc1ccc(C2CCC2)c2c1[C@H](C(=O)NS(=O)(=O)c1cccc3ccccc13)CCO2 [Example 56, (4R)-8-cyclobutyl-5-methoxy-N-(naphthalene-1-sulfonyl)-3,4-dihydro-2H-1-benzopyran-4-carboxamide] |
| 3 to 10 | ≥ 150 | < 3 | +++ (≥350) | COc1ccc(C(F)(F)F)c2c1[C@@H](C(=O)NS(=O)(=O)c1cccc3ccccc13)CCO2 [Example 57, (4S)-5-methoxy-N-(naphthalene-1-sulfonyl)-8-(trifluoromethyl)-3,4-dihydro-2H-1-benzopyran-4-carboxamide] |
| < 3 | ≥ 150 | < 3 | +++ (≥350) | COc1ccc(C(F)(F)F)c2c1[C@H](C(=O)NS(=O)(=O)c1cccc3ccccc13)CCO2 [Example 58, (4R)-5-methoxy-N-(naphthalene-1-sulfonyl)-8-(trifluoromethyl)-3,4-dihydro-2H-1-benzopyran-4-carboxamide] |
| 3 to 10 | ≥ 150 | 3 to 10 | +++ (≥350) | COc1ccc(C2CCC2)c2c1[C@@H](C(=O)NS(=O)(=O)c1cccc3ncccc13)CCO2 [Example 59, (4S)-8-cyclobutyl-5-methoxy-N-(quinoline-5-sulfonyl)-3,4-dihydro-2H-1-benzopyran-4-carboxamide] |
| < 3 | ≥ 150 | < 3 | +++ (≥350) | COc1ccc(C2CCC2)c2c1[C@H](C(=O)NS(=O)(=O)c1cccc3ncccc13)CCO2 [Example 60, (4R)-8-cyclobutyl-5-methoxy-N-(quinoline-5-sulfonyl)-3,4-dihydro-2H-1-benzopyran-4-carboxamide] |
| 3 to 10 | ≥ 150 | 3 to 10 | +++ (≥350) | CCC1(C(=O)NS(=O)(=O)c2cccc3ccccc23)COc2c(C(F)(F)F)cccc21 (stereo not shown) [Example 61, 3-ethyl-N-(naphthalene-1-sulfonyl)-7-(trifluoromethyl)-2,3-dihydro-1-benzofuran-3-carboxamide] |
| 3 to 10 | ≥ 150 | 3 to 10 | +++ (≥350) | COc1ccc(OC)c2c1OCC2C(=O)NS(=O)(=O)c1cccc2ccccc12 (stereo not shown) [Example 62, 4,7-dimethoxy-N-(naphthalene-1-sulfonyl)-2,3-dihydro-1-benzofuran-3-carboxamide] |
| 3 to 10 | ≥ 150 | < 3 | +++ (≥350) | COc1ccc(Cl)c2c1C(C(=O)NS(=O)(=O)c1cccc3ccccc13)CO2 (stereo not shown) [Example 63, 7-chloro-4-methoxy-N-(naphthalene-1-sulfonyl)-2,3-dihydro-1-benzofuran-3-carboxamide] |
| 3 to 10 | ≥ 150 | < 3 | +++ (≥350) | COc1ccc(C2CC2)c2c1C(C(=O)NS(=O)(=O)c1cccc3ccccc13)CCO2 (stereo not shown) [Example 64, 8-cyclopropyl-5-methoxy-N-(naphthalene-1-sulfonyl)-3,4-dihydro-2H-1-benzopyran-4-carboxamide] |
| < 3 | ≥ 150 | < 3 | +++ (≥350) | COc1ccc(C2CCC2)c2c1[C@@H](C(=O)NS(=O)(=O)c1cccc3ccccc13)CO2 [Example 66, (3R)-7-cyclobutyl-4-methoxy-N-(naphthalene-1-sulfonyl)-2,3-dihydro-1-benzofuran-3-carboxamide] |
| 3 to 10 | 50 to 150 | 3 to 10 | ++ (≥150 and <350) | COc1ccc(Br)c2c1[C@@H](C(=O)NS(=O)(=O)c1cccc3cnn(C)c13)CCO2 [Example 69, (4S)-8-bromo-5-methoxy-N-(1-methyl-1H-indazole-7-sulfonyl)-3,4-dihydro-2H-1-benzopyran-4-carboxamide] |
| < 3 | ≥ 150 | < 3 | +++ (≥350) | COc1ccc(Br)c2c1[C@H](C(=O)NS(=O)(=O)c1cccc3cnn(C)c13)CCO2 [Example 70, (4R)-8-bromo-5-methoxy-N-(1-methyl-1H-indazole-7-sulfonyl)-3,4-dihydro-2H-1-benzopyran-4-carboxamide] |
| 3 to 10 | ≥ 150 | < 3 | +++ (≥350) | COc1ccc(Br)c2c1[C@@H](C(=O)NS(=O)(=O)c1cccc3ncccc13)CC(C)(C)O2 [Example 71, (4S)-8-bromo-5-methoxy-2,2-dimethyl-N-(quinoline-5-sulfonyl)-3,4-dihydro-2H-1-benzopyran-4-carboxamide] |
| < 3 | ≥ 150 | < 3 | +++ (≥350) | COc1ccc(Br)c2c1[C@H](C(=O)NS(=O)(=O)c1cccc3ncccc13)CC(C)(C)O2 [Example 72, (4R)-8-bromo-5-methoxy-2,2-dimethyl-N-(quinoline-5-sulfonyl)-3,4-dihydro-2H-1-benzopyran-4-carboxamide] |
| 3 to 10 | ≥ 150 | 3 to 10 | +++ (≥350) | COc1ccc(C2CCC2)c2c1[C@@H](C(=O)NS(=O)(=O)c1cccc3nc(C)ccc13)CCO2 [Example 76, (4S)-8-cyclobutyl-5-methoxy-N-(2-methylquinoline-5-sulfonyl)-3,4-dihydro-2H-1-benzopyran-4-carboxamide] |
| 3 to 10 | ≥ 150 | < 3 | +++ (≥350) | COc1ccc(C2CCC2)c2c1[C@H](C(=O)NS(=O)(=O)c1cccc3nc(C)ccc13)CCO2 [Example 77, (4R)-8-cyclobutyl-5-methoxy-N-(2-methylquinoline-5-sulfonyl)-3,4-dihydro-2H-1-benzopyran-4-carboxamide] |
| < 3 | ≥ 150 | < 3 | +++ (≥350) | COc1ccc(Br)c2c1C(C(=O)NS(=O)(=O)c1cccc3ccccc13)OCC2 (stereo not shown) [Example 78, 5-bromo-8-methoxy-N-(naphthalene-1-sulfonyl)-3,4-dihydro-1H-2-benzopyran-1-carboxamide] |
| 3 to 10 | ≥ 150 | < 3 | +++ (≥350) | COc1ccc(C2CCC2)c2c1C(C(=O)NS(=O)(=O)c1cccc3ccccc13)OCC2 (stereo not shown) [Example 79, 5-cyclobutyl-8-methoxy-N-(naphthalene-1-sulfonyl)-3,4-dihydro-1H-2-benzopyran-1-carboxamide] |
| < 3 | ≥ 150 | < 3 | +++ (≥350) | COc1ccc(C2CCC2)c2c1C(C(=O)NS(=O)(=O)c1cccc3ncccc13)CO2 (stereo not shown) [Example 80, 7-cyclobutyl-4-methoxy-N-(quinoline-5-sulfonyl)-2,3-dihydro-1-benzofuran-3-carboxamide] |
